Reference: ChEMBL document CHEMBL4507283, “Data for DCP probe BI-1935” (2021)

Assays:
[1] = molecular target: 3',5'-cyclic-AMP phosphodiesterase 4A (Homo sapiens) (UniProt P27815); test: PDE-IV/HU Eurofins-Panlabs selectivity data (BI); details: Compound concentration 10.0 uM
[2] = molecular target: Renin (Homo sapiens) (UniProt P00797); test: RENIN (HU) Eurofins-Panlabs selectivity data (BI); details: Compound concentration 10.0 uM
[3] = tested on: Tyrosine-protein kinase ABL1 (Homo sapiens), P00519 [T315I]; details: Compound concentration 1000.0 nM
[4] = molecular target: 5'-AMP-activated protein kinase catalytic subunit alpha-1 (Homo sapiens) (UniProt Q13131); details: Compound concentration 1000.0 nM
[5] = molecular target: Ankyrin repeat and protein kinase domain-containing protein 1 (Homo sapiens) (UniProt Q8NFD2); details: Compound concentration 1000.0 nM
[6] = molecular target: Tyrosine-protein kinase Blk (Homo sapiens) (UniProt P51451); details: Compound concentration 1000.0 nM
[7] = tested on: Serine/threonine-protein kinase B-raf (Homo sapiens), P15056 [V600E]; details: Compound concentration 1000.0 nM
[8] = molecular target: Serine/threonine-protein kinase BRSK1 (Homo sapiens) (UniProt Q8TDC3); details: Compound concentration 1000.0 nM
Sequence of Serine/threonine-protein kinase BRSK1 (Homo sapiens) (Q8TDC3 whole entry): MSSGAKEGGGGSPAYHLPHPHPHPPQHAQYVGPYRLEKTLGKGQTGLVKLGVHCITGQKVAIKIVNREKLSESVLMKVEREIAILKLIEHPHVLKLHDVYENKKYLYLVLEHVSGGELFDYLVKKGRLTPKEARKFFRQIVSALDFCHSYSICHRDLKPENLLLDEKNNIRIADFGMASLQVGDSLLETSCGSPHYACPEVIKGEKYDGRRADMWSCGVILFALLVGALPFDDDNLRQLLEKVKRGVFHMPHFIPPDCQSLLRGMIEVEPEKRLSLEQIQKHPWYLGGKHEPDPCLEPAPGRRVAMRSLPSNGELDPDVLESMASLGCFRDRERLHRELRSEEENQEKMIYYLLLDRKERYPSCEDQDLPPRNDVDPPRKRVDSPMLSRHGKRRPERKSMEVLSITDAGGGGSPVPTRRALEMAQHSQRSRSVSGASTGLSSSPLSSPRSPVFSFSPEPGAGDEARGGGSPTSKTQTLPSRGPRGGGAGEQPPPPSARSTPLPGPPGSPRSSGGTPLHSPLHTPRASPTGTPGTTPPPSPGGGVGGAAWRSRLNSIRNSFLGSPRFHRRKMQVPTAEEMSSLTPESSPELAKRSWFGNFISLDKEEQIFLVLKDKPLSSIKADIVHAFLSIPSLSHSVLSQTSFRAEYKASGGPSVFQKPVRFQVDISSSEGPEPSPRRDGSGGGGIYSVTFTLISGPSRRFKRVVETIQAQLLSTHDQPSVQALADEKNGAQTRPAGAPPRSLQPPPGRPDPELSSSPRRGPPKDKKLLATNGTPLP

[9] = molecular target: Calcium/calmodulin-dependent protein kinase type II subunit gamma (Homo sapiens) (UniProt Q13555); details: Compound concentration 1000.0 nM
[10] = molecular target: Dual specificity protein kinase CLK4 (Homo sapiens) (UniProt Q9HAZ1); details: Compound concentration 1000.0 nM
[11] = molecular target: Macrophage colony-stimulating factor 1 receptor (Homo sapiens) (UniProt P07333); details: Compound concentration 1000.0 nM
[12] = molecular target: Tyrosine-protein kinase CSK (Homo sapiens) (UniProt P41240); details: Compound concentration 1000.0 nM
[13] = tested on: Epidermal growth factor receptor (Homo sapiens), P00533 [L861Q]; details: Compound concentration 1000.0 nM
[14] = molecular target: Ephrin type-A receptor 3 (Homo sapiens) (UniProt P29320); details: Compound concentration 1000.0 nM
[15] = molecular target: Ephrin type-A receptor 7 (Homo sapiens) (UniProt Q15375); details: Compound concentration 1000.0 nM
[16] = molecular target: Ephrin type-B receptor 1 (Homo sapiens) (UniProt P54762); details: Compound concentration 1000.0 nM
Sequence of Ephrin type-B receptor 1 (Homo sapiens) (P54762 whole entry): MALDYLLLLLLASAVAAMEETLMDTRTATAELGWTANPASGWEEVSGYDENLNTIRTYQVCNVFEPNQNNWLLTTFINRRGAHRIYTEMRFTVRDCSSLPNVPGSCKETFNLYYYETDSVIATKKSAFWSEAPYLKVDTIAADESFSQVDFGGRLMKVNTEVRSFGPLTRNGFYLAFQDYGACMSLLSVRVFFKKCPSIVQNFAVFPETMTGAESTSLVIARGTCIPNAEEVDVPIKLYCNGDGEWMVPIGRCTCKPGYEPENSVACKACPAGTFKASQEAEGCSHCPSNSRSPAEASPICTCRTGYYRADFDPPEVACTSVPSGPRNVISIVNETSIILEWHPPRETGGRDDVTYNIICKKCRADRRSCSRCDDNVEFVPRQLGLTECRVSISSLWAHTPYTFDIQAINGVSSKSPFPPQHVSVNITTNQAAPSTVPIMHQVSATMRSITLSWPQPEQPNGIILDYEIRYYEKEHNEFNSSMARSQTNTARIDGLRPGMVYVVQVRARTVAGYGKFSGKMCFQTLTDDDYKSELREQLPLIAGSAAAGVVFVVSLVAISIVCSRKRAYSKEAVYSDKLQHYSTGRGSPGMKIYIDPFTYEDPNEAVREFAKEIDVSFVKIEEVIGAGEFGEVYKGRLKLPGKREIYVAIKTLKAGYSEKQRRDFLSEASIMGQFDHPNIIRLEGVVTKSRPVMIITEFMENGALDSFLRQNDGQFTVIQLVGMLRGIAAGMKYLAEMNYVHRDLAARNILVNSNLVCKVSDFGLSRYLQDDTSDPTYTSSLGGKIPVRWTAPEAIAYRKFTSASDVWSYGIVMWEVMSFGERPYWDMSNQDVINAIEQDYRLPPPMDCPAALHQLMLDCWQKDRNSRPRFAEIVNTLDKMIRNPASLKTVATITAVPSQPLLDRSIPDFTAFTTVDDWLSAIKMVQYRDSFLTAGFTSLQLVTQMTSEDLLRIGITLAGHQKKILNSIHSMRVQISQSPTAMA

[17] = molecular target: Fibroblast growth factor receptor 3 (Homo sapiens) (UniProt P22607); details: Compound concentration 1000.0 nM
Sequence of Fibroblast growth factor receptor 3 (Homo sapiens) (P22607 23-806 limits assumed): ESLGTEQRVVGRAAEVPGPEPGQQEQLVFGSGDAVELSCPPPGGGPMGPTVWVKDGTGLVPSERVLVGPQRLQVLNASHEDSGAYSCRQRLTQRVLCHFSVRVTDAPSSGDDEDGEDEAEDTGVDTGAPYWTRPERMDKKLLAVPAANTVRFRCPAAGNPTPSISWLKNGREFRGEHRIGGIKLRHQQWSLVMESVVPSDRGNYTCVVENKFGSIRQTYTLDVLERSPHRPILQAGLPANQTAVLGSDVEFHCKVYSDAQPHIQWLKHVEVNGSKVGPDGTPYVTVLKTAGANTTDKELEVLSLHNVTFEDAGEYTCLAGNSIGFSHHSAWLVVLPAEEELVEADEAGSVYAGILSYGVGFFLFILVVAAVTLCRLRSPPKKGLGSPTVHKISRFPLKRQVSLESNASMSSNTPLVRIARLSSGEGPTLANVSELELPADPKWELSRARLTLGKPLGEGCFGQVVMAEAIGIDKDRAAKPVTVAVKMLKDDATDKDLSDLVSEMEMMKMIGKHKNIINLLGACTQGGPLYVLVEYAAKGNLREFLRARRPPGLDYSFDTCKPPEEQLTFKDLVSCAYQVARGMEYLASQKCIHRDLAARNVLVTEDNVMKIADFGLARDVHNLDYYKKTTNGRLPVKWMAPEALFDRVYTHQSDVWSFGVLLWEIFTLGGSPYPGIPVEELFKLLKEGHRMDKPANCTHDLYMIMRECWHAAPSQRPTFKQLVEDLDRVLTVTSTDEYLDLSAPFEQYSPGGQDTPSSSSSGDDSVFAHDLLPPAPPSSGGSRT

[18] = tested on: Receptor-type tyrosine-protein kinase FLT3 (Homo sapiens), P36888 [D835H]; details: Compound concentration 1000.0 nM
[19] = tested on: Receptor-type tyrosine-protein kinase FLT3 (Homo sapiens), P36888 [UNDEFINED MUTATION]; details: Compound concentration 1000.0 nM
[20] = tested on: Receptor-type tyrosine-protein kinase FLT3 (Homo sapiens), P36888 [UNDEFINED MUTATION]; details: Compound concentration 1000.0 nM; remark: listed apart in the source
[21] = molecular target: Hormonally up-regulated neu tumor-associated kinase (Homo sapiens) (UniProt P57058); details: Compound concentration 1000.0 nM
[22] = molecular target: Tyrosine-protein kinase JAK2 (Homo sapiens) (UniProt O60674); details: Compound concentration 1000.0 nM
[23] = molecular target: Tyrosine-protein kinase JAK3 (Homo sapiens) (UniProt P52333); details: Compound concentration 1000.0 nM
[24] = tested on: Mast/stem cell growth factor receptor Kit (Homo sapiens), P10721 [V559D,V654A]; details: Compound concentration 1000.0 nM
[25] = molecular target: Mitogen-activated protein kinase kinase kinase 1 (Homo sapiens) (UniProt Q13233); details: Compound concentration 1000.0 nM
[26] = molecular target: Mitogen-activated protein kinase kinase kinase 3 (Homo sapiens) (UniProt Q99759); details: Compound concentration 1000.0 nM
[27] = molecular target: Mitogen-activated protein kinase kinase kinase kinase 3 (Homo sapiens) (UniProt Q8IVH8); details: Compound concentration 1000.0 nM
Sequence of Mitogen-activated protein kinase kinase kinase kinase 3 (Homo sapiens) (Q8IVH8 whole entry): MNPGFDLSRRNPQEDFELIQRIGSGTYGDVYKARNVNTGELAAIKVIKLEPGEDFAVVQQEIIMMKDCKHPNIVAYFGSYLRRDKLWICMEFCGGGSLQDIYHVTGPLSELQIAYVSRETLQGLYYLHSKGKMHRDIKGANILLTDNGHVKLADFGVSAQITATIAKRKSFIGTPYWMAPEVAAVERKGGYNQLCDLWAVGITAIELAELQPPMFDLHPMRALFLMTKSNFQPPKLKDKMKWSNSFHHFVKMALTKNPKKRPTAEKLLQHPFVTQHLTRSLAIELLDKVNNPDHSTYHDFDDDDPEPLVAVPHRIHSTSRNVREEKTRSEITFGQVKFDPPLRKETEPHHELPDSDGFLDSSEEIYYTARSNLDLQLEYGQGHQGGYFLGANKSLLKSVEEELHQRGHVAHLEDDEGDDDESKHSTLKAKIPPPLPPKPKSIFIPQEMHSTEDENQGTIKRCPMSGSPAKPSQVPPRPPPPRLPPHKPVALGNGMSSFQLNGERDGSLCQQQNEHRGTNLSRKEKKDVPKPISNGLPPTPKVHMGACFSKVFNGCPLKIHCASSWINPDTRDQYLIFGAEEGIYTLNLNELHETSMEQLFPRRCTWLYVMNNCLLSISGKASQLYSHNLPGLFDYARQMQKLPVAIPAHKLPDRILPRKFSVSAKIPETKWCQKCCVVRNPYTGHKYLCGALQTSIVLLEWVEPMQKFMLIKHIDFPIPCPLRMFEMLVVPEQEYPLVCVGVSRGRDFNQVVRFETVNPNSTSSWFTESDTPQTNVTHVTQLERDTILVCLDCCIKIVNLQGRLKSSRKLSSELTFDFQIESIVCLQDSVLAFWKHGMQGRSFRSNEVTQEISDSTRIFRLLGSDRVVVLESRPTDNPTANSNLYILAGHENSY

[28] = molecular target: Dual specificity mitogen-activated protein kinase kinase 2 (Homo sapiens) (UniProt P36507); details: Compound concentration 1000.0 nM
[29] = molecular target: Dual specificity mitogen-activated protein kinase kinase 6 (Homo sapiens) (UniProt P52564); details: Compound concentration 1000.0 nM
[30] = molecular target: MAP kinase-interacting serine/threonine-protein kinase 1 (Homo sapiens) (UniProt Q9BUB5); details: Compound concentration 1000.0 nM
[31] = molecular target: Macrophage-stimulating protein receptor (Homo sapiens) (UniProt Q04912); details: Compound concentration 1000.0 nM
[32] = molecular target: Serine/threonine-protein kinase mTOR (Homo sapiens) (UniProt P42345); details: Compound concentration 1000.0 nM
[33] = molecular target: Serine/threonine-protein kinase Nek3 (Homo sapiens) (UniProt P51956); details: Compound concentration 1000.0 nM
[34] = molecular target: Phosphorylase b kinase regulatory subunit alpha, liver isoform (Homo sapiens) (UniProt P46019); details: Compound concentration 1000.0 nM
[35] = molecular target: Phosphatidylinositol 3-kinase C2 domain-containing subunit gamma (Homo sapiens) (UniProt O75747); details: Compound concentration 1000.0 nM
Sequence of Phosphatidylinositol 3-kinase C2 domain-containing subunit gamma (Homo sapiens) (O75747 whole entry, the tested form may be a part, canonical isoform): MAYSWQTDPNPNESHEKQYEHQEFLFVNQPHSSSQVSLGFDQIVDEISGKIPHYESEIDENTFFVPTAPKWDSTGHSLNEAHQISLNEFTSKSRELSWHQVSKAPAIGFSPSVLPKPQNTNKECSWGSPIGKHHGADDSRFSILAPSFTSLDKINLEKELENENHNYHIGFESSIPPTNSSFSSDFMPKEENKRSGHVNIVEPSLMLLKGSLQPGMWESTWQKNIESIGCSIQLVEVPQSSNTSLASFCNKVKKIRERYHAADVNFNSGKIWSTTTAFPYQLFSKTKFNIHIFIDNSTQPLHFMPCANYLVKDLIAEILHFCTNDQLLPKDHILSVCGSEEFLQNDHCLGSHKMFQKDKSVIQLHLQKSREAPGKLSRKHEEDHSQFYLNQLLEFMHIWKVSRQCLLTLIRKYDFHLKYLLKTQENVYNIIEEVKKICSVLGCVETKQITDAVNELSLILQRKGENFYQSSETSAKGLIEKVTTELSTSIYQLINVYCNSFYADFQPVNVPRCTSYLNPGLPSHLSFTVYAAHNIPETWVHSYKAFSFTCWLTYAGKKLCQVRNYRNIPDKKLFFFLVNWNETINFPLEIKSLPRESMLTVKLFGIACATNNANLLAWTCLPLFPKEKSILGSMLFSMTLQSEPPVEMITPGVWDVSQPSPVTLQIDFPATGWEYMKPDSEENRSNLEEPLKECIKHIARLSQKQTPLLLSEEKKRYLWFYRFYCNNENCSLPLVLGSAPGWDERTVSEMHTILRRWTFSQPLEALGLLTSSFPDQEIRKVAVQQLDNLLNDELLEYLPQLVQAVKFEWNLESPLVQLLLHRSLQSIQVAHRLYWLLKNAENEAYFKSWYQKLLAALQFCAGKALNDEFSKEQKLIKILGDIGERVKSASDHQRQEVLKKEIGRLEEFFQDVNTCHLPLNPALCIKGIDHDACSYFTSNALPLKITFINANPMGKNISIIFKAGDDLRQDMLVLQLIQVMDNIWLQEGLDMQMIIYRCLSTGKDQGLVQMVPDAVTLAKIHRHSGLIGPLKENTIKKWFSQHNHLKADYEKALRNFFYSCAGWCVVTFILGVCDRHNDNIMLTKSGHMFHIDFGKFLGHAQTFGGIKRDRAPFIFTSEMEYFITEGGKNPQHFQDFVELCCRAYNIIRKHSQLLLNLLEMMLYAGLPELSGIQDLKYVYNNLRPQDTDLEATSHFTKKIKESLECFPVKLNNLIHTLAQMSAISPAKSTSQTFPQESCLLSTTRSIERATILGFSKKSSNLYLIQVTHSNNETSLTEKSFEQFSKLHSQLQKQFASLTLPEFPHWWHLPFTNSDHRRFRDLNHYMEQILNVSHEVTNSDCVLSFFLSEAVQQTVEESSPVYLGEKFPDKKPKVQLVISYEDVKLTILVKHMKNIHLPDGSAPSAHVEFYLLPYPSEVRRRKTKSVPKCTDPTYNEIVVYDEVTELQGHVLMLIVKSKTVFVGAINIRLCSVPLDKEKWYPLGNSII

[36] = molecular target: Phosphatidylinositol 4,5-bisphosphate 3-kinase catalytic subunit beta isoform (Homo sapiens) (UniProt P42338); details: Compound concentration 1000.0 nM
[37] = molecular target: Serine/threonine-protein kinase pim-2 (Homo sapiens) (UniProt Q9P1W9); details: Compound concentration 1000.0 nM
[38] = molecular target: cGMP-dependent protein kinase 1 (Homo sapiens) (UniProt Q13976); details: Compound concentration 1000.0 nM
[39] = molecular target: Receptor-interacting serine/threonine-protein kinase 2 (Homo sapiens) (UniProt O43353); details: Compound concentration 1000.0 nM
[40] = molecular target: Ribosomal protein S6 kinase alpha-3 (Homo sapiens) (UniProt P51812); details: Compound concentration 1000.0 nM
[41] = molecular target: Serine/threonine-protein kinase 36 (Homo sapiens) (UniProt Q9NRP7); details: Compound concentration 1000.0 nM
[42] = molecular target: Non-receptor tyrosine-protein kinase TYK2 (Homo sapiens) (UniProt P29597); details: Compound concentration 1000.0 nM
[43] = molecular target: Vascular endothelial growth factor receptor 2 (Homo sapiens) (UniProt P35968); details: Compound concentration 1000.0 nM
[44] = molecular target: Mu-type opioid receptor (Homo sapiens) (UniProt P35372); details: Compound concentration 10.0 uM

CCOCCn1cc(C(=O)Nc2ccc(-n3nc(-c4cccnc4)cc3C(F)(F)F)cn2)ccc1=O [BI 1935]
inactive: residual activity [1] 86% | residual activity [2] 94% | residual activity [3] 96% | residual activity [4] 100% | residual activity [5] 57% | residual activity [6] 89% | residual activity [7] 97% | residual activity [8] 100% | residual activity [9] 100% | residual activity [10] 100% | residual activity [11] 100% | residual activity [12] 100% | residual activity [13] 100% | residual activity [14] 99% | residual activity [15] 98% | residual activity [16] 100% | residual activity [17] 84% | residual activity [18] 87% | residual activity [19] 79% | residual activity [20] 86% | residual activity [21] 93% | residual activity [22] 91% | residual activity [23] 100% | residual activity [24] 100% | residual activity [25] 84% | residual activity [26] 100% | residual activity [27] 85% | residual activity [28] 94% | residual activity [29] 100% | residual activity [30] 97% | residual activity [31] 100% | residual activity [32] 100% | residual activity [33] 100% | residual activity [34] 100% | residual activity [35] 85% | residual activity [36] 82% | residual activity [37] 100% | residual activity [38] 98% | residual activity [39] 71% | residual activity [40] 84% | residual activity [41] 71% | residual activity [42] 77% | residual activity [43] 81% | inhibition [44] 2.68%
